# Read-outs that look alike come from different tables or passages of the source.
# Legend:
# [1] = test system: plasma LysoPC level; test: Change of plasma LysoPC level after oral ingestion in a fasted healthy subject (HPTLC assay of LysoPC); conditions: 600 mg alpha-GPC
# Procedure: (§1) LysoPC from plasma, serum or blood was extracted in one step by a newly developed method and subsequently assayed by using HPTLC (high performance thin layer chromatography).
# (§2) The extraction of 50 μl of sample each was effected using salt-assisted extraction. For this purpose, a ceramic sphere (3.4 mm, ceramic) was charged in a 2 ml twist-top vial, and then 50 μl of distilled water, 50 μl of sample, 192 μl of concentrated ammonium acetate solution, and 300 μl of acetonitrile/1-pentanol (2.5:1 v/v) were added. After closing, the vial is intensively shaken centrifugally using dual centrifugation (ZentriMix 380 R, from the company Hettich, Tuttlingen, Germany) at 2000 rpm and 20° C. for 4 min. Subsequently, the vials are centrifuged at 16,000 rpm for 10 min. From the upper phase, 200 μl is removed, transferred to a crimp-top vial with a microinsert, crimped, and sent to HPTLC.
# (§3) For the determination of the LysoPC concentrations using HPTLC, five LysoPC standards (16, 40, 80, 120 and 160 μM LysoPC in acetonitrile/1-pentanol (2.5:1 v/v.) and up to 12 sample extracts were applied to a 20×10 cm silica gel plate using the automated applying device ATS4 (CAMAG, Switzerland). The volume applied is 6 μl each.
# (§4) After the application and after a dwell time of five minutes to ensure uniform evaporation of the solvent, the plate is placed into a preconditioned DC chamber filled with 35 ml of chloroform/methanol/water (65:35:4 v/v) and 200 μl of 25% ammonia solution for 20 min. Within this period, a travelling distance of about 9 cm is reached. […] After cooling to room temperature again, the optical density of the LysoPC bands (Rf about 0.1) is determined using the evaluation unit (TLC Visualizer 2, CAMAG, Switzerland), and the LysoPC concentrations were evaluated by comparing with the calibration substances using the HPTLC software “visionCATS” (Camag, Switzerland). If the LysoPC value is determined, not directly from plasma, but from whole blood, then the value needs to be corrected by the respective hematocrit value and by a factor of 1.3. […]
# [2] = test system: plasma LysoPC level; conditions: human, in vivo
# Procedure: as §1, §2, §3, §4
# [3] = mice; cited from earlier work
# [4] = Assaying the total amount of LysoPC in the body (distribution between plasma and deeper compartments); format: in vivo, human
# Procedure: To the therapeutic approach for the treatment of pneumonias of different origins and of sepsis as described herein, the determination of the total amount of LysoPC in the body is essential. The latter could be determined by determining the LysoPC concentration in the plasma, which is in equilibrium with the deeper compartments. To this end, one subject was administered, on the one hand, a high amount of phospholipid from egg (Example 1 (Determination of Plasma LysoPC) and Example 2). The plasma volume was calculated, the increase of the LysoPC concentration was determined, and the plasma LysoPC level accompanying this concentration change was calculated. This LysoPC amount and its ratio to the amount taken up yields the distribution of the LysoPC equivalent taken up between the plasma and the deeper compartments, from which the total LysoPC amount in the body can be calculated. It was considered that 100% of the phospholipid is taken up as LysoPC.
# In another experiment, a subject was administered a high amount (25 g) of pure triglyceride (Example 3). The plasma volume was calculated. The lowering of the LysoPC concentration because of the consumption of LysoPC for producing PC for the biosynthesis of chylomicrons was determined (One chylomicron contains about 5-10% PC as a ratio to the amount of triglyceride). The amount of plasma LysoPC involved in this concentration change was calculated. This amount of LysoPC and its ratio to the amount taken up yields the distribution of the LysoPC equivalent taken up between the plasma and the deeper compartments, from which the total LysoPC amount in the body can be calculated. It was considered that 100% of the plasma LysoPC was converted to PC.
# From the results of Examples 2 and 3, the amount of LysoPC in deeper compartments could be estimated at about 95% of the total body LysoPCs, i.e., about 5% is present in the blood plasma.
# On this basis, the amount of total body LysoPCs can be estimated to a minimum of 10 g. […]
# [5] = target: albumin (Homo sapiens, UniProt P02768); conditions: cited from earlier work
# Chain of albumin (P02768 25-609): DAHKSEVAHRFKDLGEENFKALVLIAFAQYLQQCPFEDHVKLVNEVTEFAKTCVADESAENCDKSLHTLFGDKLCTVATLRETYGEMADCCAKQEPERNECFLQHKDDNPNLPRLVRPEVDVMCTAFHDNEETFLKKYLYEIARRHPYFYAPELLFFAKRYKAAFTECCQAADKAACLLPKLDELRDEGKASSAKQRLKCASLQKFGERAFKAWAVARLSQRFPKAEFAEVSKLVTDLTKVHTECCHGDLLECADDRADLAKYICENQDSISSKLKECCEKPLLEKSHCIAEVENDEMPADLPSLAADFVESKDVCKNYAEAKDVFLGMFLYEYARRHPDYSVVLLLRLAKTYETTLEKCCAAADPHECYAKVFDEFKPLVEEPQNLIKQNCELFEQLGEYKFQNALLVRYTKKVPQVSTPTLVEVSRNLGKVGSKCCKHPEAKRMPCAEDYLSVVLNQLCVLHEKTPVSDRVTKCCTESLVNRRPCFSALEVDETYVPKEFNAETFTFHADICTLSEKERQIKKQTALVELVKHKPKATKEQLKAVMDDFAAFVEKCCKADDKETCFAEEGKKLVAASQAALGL
# [6] = test system: E. coli; conditions: mice, cited from earlier work
# [7] = test system: sepsis models; conditions: mice, 25 mg/kg LysoPC i.p., cited from earlier work
# [8] = squirrel monkeys; cited from earlier work
# [9] = test system: septic shock (Gram positive and Gram negative); conditions: rat, cited from earlier work
# [10] = test system: production of antigen-specific antibodies; conditions: mice, administered simultaneously with various antigens; cited from earlier work
substance,measurement,setting,value
alpha-glycerophosphocholine [alpha-GPC],increase of plasma LysoPC level,"[1]; rise within 30 min after the first hour, then constant until end (2 hours)",about 20%
same,change of plasma LysoPC level in the first hour,[1]; starting level about 190 μM,did not change
triglycerides,share of the consumed LysoPC amount (1700 mg) taken from the plasma,[2],3.9%
lyso-phosphatidylcholine [LysoPC],LysoPC half life,[3],about 4 hours
same,amount of total body LysoPCs,[4]; for mean 300 μM and plasma volume about 3.5 liters (about 500 mg in plasma),about 10 g
same,proportion of total body LysoPC located in the blood plasma,[4]; from Examples 2 and 3,4-5%
same,daily conversion rate of LysoPC,"[4]; healthy subjects, based on estimated total body half life of 2.5 hours",about 50 g
same,number of binding sites of albumin for LysoPC,[5],3-4
same,share of plasma LysoPCs bound by albumin,[5]; plasma,about 80%
same,survival,"[6]; E. coli sepsis, 20 mg/kg LysoPC s.c., from about 20%",90%
same,duration of increased LysoPC level after a single injection,[6]; single injection,about 4 hours
same,bacterial clearance,[7],improved
same,"survival, first sepsis model",[7]; from 0%,69%
same,"survival, second sepsis model",[7]; from 0%,40%
same,LysoPC half life,[8],1.3 h
same,IL1-β levels,[9]; accompanying the protecting effects,reduction of the IL1-β levels
same,effect of higher doses,[9]; higher doses of up to 100 mg/kg,incapable or even harmful
same,effect on damage to the organs and dysfunctions,"[9]; up to 10 mg/kg, i.v.",reduce the damage to the organs and dysfunctions significantly
same,effect in the production of antigen-specific antibodies (adjuvant),[10],identical to that of alum
